Experimental data published in the NIST ThermoML archive (doi:10.1016/j.jct.2018.04.018).
Values joined by “and” are separate entries in the source; they are usually repeats but may differ in a detail not shown here. Equal values may be shown once.

Details: 101.33 kPa, Liquid; for speed of sound: Single path-length method; for mass density: Vibrating tube method

CCCCCCCC[n+]1ccn(C)c1.F[P-](F)(F)(F)(F)F [1-octyl-3-methylimidazolium hexafluorophosphate]
Details	viscosity
332.11 K, Cone and plate viscometry	101.6 mPa·s
332.85 K, Cone and plate viscometry	99.6 mPa·s and 99.3 mPa·s
333.15 K, Concentric cylinders viscometry	98.3 mPa·s
333.59 K, Cone and plate viscometry	95.7 mPa·s and 96 mPa·s
334.34 K, Cone and plate viscometry	92.5 mPa·s
334.35 K, Cone and plate viscometry	93 mPa·s
335.07 K, Cone and plate viscometry	89.7 mPa·s
335.09 K, Cone and plate viscometry	89.6 mPa·s
335.82 K, Cone and plate viscometry	86.7 mPa·s and 86.8 mPa·s
336.57 K, Cone and plate viscometry	84.1 mPa·s
337.31 K, Cone and plate viscometry	81.6 mPa·s and 81.7 mPa·s
338.05 K, Cone and plate viscometry	79.3 mPa·s
338.06 K, Cone and plate viscometry	78.8 mPa·s
338.79 K, Cone and plate viscometry	76.6 mPa·s
338.81 K, Cone and plate viscometry	76.2 mPa·s
339.54 K, Cone and plate viscometry	73.9 mPa·s and 74.2 mPa·s
340.28 K, Cone and plate viscometry	72 mPa·s
340.29 K, Cone and plate viscometry	71.9 mPa·s
341.03 K, Cone and plate viscometry	70 mPa·s
341.04 K, Cone and plate viscometry	69.8 mPa·s
341.77 K, Cone and plate viscometry	68 mPa·s and 68.1 mPa·s
342.51 K, Cone and plate viscometry	66.1 mPa·s and 66.6 mPa·s
343.15 K, Concentric cylinders viscometry	64.9 mPa·s
343.25 K, Cone and plate viscometry	64.1 mPa·s and 63.9 mPa·s
344 K, Cone and plate viscometry	62.2 mPa·s and 62 mPa·s
344.73 K, Cone and plate viscometry	60.4 mPa·s
344.76 K, Cone and plate viscometry	60.4 mPa·s
345.48 K, Cone and plate viscometry	58.8 mPa·s
345.51 K, Cone and plate viscometry	58.8 mPa·s
346.22 K, Cone and plate viscometry	57.2 mPa·s
346.29 K, Cone and plate viscometry	56.9 mPa·s
346.97 K, Cone and plate viscometry	55.4 mPa·s
347.05 K, Cone and plate viscometry	55.1 mPa·s
347.72 K, Cone and plate viscometry	53.8 mPa·s
347.81 K, Cone and plate viscometry	53.7 mPa·s
348.46 K, Cone and plate viscometry	52.4 mPa·s
348.57 K, Cone and plate viscometry	52.3 mPa·s
349.19 K, Cone and plate viscometry	51.1 mPa·s
349.33 K, Cone and plate viscometry	50.8 mPa·s
349.94 K, Cone and plate viscometry	49.7 mPa·s
350.07 K, Cone and plate viscometry	49.4 mPa·s
350.69 K, Cone and plate viscometry	48.3 mPa·s
350.77 K, Cone and plate viscometry	48.2 mPa·s
351.42 K, Cone and plate viscometry	47 mPa·s
351.48 K, Cone and plate viscometry	47.2 mPa·s
352.16 K, Cone and plate viscometry	46 mPa·s
352.22 K, Cone and plate viscometry	46.3 mPa·s
352.91 K, Cone and plate viscometry	45.1 mPa·s
352.99 K, Cone and plate viscometry	45.2 mPa·s
353.15 K, Concentric cylinders viscometry	44.7 mPa·s
353.66 K, Cone and plate viscometry	43.7 mPa·s
353.75 K, Cone and plate viscometry	44.3 mPa·s
354.39 K, Cone and plate viscometry	42.6 mPa·s
354.48 K, Cone and plate viscometry	43 mPa·s
355.14 K, Cone and plate viscometry	41.9 mPa·s
355.2 K, Cone and plate viscometry	42 mPa·s
355.88 K, Cone and plate viscometry	40.9 mPa·s
355.92 K, Cone and plate viscometry	41.3 mPa·s
356.63 K, Cone and plate viscometry	40.2 mPa·s
356.66 K, Cone and plate viscometry	40.5 mPa·s
357.36 K, Cone and plate viscometry	39 mPa·s
357.39 K, Cone and plate viscometry	39.2 mPa·s
358.1 K, Cone and plate viscometry	37.6 mPa·s
358.11 K, Cone and plate viscometry	38 mPa·s
358.85 K, Cone and plate viscometry	36.5 mPa·s
358.86 K, Cone and plate viscometry	37 mPa·s
359.6 K, Cone and plate viscometry	35.6 mPa·s and 36.5 mPa·s
360.35 K, Cone and plate viscometry	34.8 mPa·s and 35.7 mPa·s
361.08 K, Cone and plate viscometry	34.6 mPa·s
361.09 K, Cone and plate viscometry	35 mPa·s
361.82 K, Cone and plate viscometry	33.9 mPa·s and 34 mPa·s
362.57 K, Cone and plate viscometry	32.8 mPa·s
362.58 K, Cone and plate viscometry	32.5 mPa·s
363.15 K, Concentric cylinders viscometry	32.1 mPa·s
363.31 K, Cone and plate viscometry	32.1 mPa·s
363.32 K, Cone and plate viscometry	31.9 mPa·s
364.05 K, Cone and plate viscometry	31.3 mPa·s and 31.4 mPa·s
364.79 K, Cone and plate viscometry	31.1 mPa·s
364.8 K, Cone and plate viscometry	30.9 mPa·s
365.54 K, Cone and plate viscometry	29.7 mPa·s and 30.4 mPa·s
366.28 K, Cone and plate viscometry	29.6 mPa·s
366.29 K, Cone and plate viscometry	29.1 mPa·s
367.02 K, Cone and plate viscometry	28.7 mPa·s and 28.9 mPa·s
367.76 K, Cone and plate viscometry	27.9 mPa·s and 28.2 mPa·s
368.49 K, Cone and plate viscometry	27.6 mPa·s
368.51 K, Cone and plate viscometry	27.1 mPa·s
369.24 K, Cone and plate viscometry	27 mPa·s

Details	mass density	speed of sound [m/s]
333.15 K	1209.85 kg/m3 [middle of 4 runs]	1318.6
343.15 K	1202.43 kg/m3 [middle of 4 runs]	–
343.16 K	–	1296.1
353.15 K	1195.18 kg/m3 and 1195.41 kg/m3	–
363.15 K	1188.37 kg/m3 and 1188.53 kg/m3	–
